In patent publication US20050032904A1, “Composition and use of allylamine derivatives” (priority 2003, published 2005):

Key:
COLO 205 cells = assay: DNA fragmentation (DNA ladder) by electrophoresis of genomic DNA; type: cell-based, human
Method: Genomic DNAs extracted from TB-treated COLO 205 were examined by gel electrophoresis. […] In FIG. 9, the part of (A) refers to potentiation of ND-induced apoptosis by TB. […] DNA fragmentation was examined at 24 h after drug treatment. In the lanes 2 and 8, cells received mock treatment as controls. The symbols of “M” (in lanes 1 and 7), refer to “DNA size marker.” (B) average tumor volume of DMSO-treated vs. drug-treated nude mice (n=5). (C) tumor weight, (D) animal body weight, and (E) tumor/body weight ratio were measured at the end of experiment. Five samples were analyzed in each group, and values represent the mean±S.E. Comparisons were subjected to ANOVA followed by Fisher's least significant difference test. Significance was accepted at p<0.05. *TB-, ND-, and TB+ND-treated group different from DMSO-treated group. TB+ND-treated group different from TB- or ND-treated group.

[1] = tested on: COLO 205 tumor xenografts; assay: Treatment of COLO 205-derived xenografts in vivo; design: species or system nude mouse; conditions: TB 50 mg/kg, ND 5 mg/kg, intraperitoneal, 3 times per week for 6 weeks
Method: Genomic DNAs extracted from TB-treated COLO 205 were examined by gel electrophoresis. […] DNA fragmentation was examined at 24 h after drug treatment. In the lanes 2 and 8, cells received mock treatment as controls. […] Comparisons were subjected to ANOVA followed by Fisher's least significant difference test. […] Since, retardation of the cell cycle and/or activation of the cellular apoptotic response are two major mechanisms preventing tumor growth, we examined the TB effect on the cell cycle and apoptosis occurrence of the solid tumor derived from the implanted COLO 205. The COLO-205 cells (5×10^6) in 0.1 ml RPMI 1640 were injected subcutaneously between the scapulae of each nude mouse (purchased from National Science Council animal center, Taipei). […]

malignant cells = conditions: through abnormal microtubule polymerization; previous study; cited from earlier work
[2] = tested on: COLO 205 tumor xenografts; conditions: previous research; cited from earlier work
[3] = tested on: hepatoma and colon cancer cells; conditions: previous studies of the inventors; cited from earlier work

COC(=O)Nc1nc2ccc(C(=O)c3cccs3)cc2[nH]1 [ND, nocodazole]
ND concentration at which DNA ladder patterns characteristic of apoptosis are displayed (COLO 205 cells; ND alone, 24 h after drug treatment): ≥ 50 nM | ND concentration inducing the DNA ladder pattern (COLO 205 cells; in the presence of 10 μM TB, 24 h): 1 nM | tumor volume vs. vehicle (DMSO plus peanut oil) [1]: reduction in tumor volume

COC1=CC(=O)C[C@@H](C)[C@]12Oc1c(Cl)c(OC)cc(OC)c1C2=O [griseofulvin]
apoptosis and cell cycle arrest (malignant cells): induced apoptosis and cell cycle arrest at the G2/M phase | effect on anti-cancer activities of nocodazole in vivo [2]: potentiates the anti-cancer activities of nocodazole

CC(=O)N1CCN(c2ccc(OCC3COC(Cn4ccnc4)(c4ccc(Cl)cc4Cl)O3)cc2)CC1 (stereo not drawn) [ketoconazole]
cell cycle arrest and apoptosis [3]: induced cell cycle arrest at the G0/G1 phase of the cell cycle and the occurrence of apoptosis
